What all share (assay type): in vivo
The test system of assay [1] is BLA-DMS neural circuit. Briefly: Hole board test in mice with chemogenetically (hM3Dq/CNO) activated BLA-DMS circuit. On the procedure:
A solution of clozapine N-oxide (CNO; Tocris, Bristol, United Kingdom) in saline was intraperitoneally injected to mice. Taking into account the time it takes for the drug to act, the experiment was started after about 30 minutes. The drug was injected at a dose of 1 mg/kg at the same time every day.
As a control for CNO, saline was used. Saline was also intraperitoneally injected at the same volume and the experiments were conducted in the same condition as for the CNO group.
A square acrylic plate with 9 holes (3 cm in diameter) was made to be 30 cm wide and 30 cm long. A home base was constructed with a material different from the acryl plate. Based on the home base, water was placed on the right end of the acrylic plate, and 10% sucrose was placed on the other side. Afterward, a mouse was placed in the home base and monitored for 1 hour under a video camera. Remaining amounts of sucrose and water were recorded after completion of the test.
In the present disclosure, mice were divided into two groups: saline-administered and CNO-administered groups and subjected to the test at the same time every day for 18 days. After a four-day learning period, the fourth day was used as the base. During this period, the mice located the water and 10% sucrose on the hole board. Saline and CNO were administered to each group for a total of 12 days from the 5th day to the 16th day. On the 17th day, it was observed whether the OCD phenomenon was maintained even in the absence of administration of saline and CNO. Finally, on the 18th day, the mice were measured for cognitive flexibility after switching the positions of water and 10% sucrose. The video between the base and the 18th day (base to day 14) was analyzed. The analysis items included checking behavior (repetitive checking), repetitive nose poking (repetitively inserting the nose into the hole), excessive grooming (excessive washing—hair trimming), and flexibility (cognitive flexibility).
As an analysis method, the video was analyzed with the naked eye through the blind test. Through the blind test, the objectivity of the experiment was secured by preventing the experimenter from knowing about the saline-administered group and the CNO-administered group. A measurement was made of: the frequency of going to water and sucrose for the checking behavior (repetitive checking); the number of actions of inserting the nose into each hole for repetitive nose poking (repeatedly inserting the nose into the hole); the total length of grooming (duration) and the total number of times (frequency) of the start and end of grooming for excessive grooming (excessive washing—hair trimming); and the number of times to go to water and sucrose where the positions of the 18th day (day 14) were reversed, for the flexibility (cognitive flexibility).
AAV-retro Cre virus, which can make a retrograde infection, was injected to the DMS while AAV-DIO-hM3Dq, which specifically expresses Cre, was injected into the BLA. That is, advantage was taken of the principle that when the retrograde virus from the DMS expresses Cre in the neuron cell body (soma) of the BLA, the AAV-DIO-hM3Dq virus is induced to express hM3Dq thereat only in the presence of Cre. hM3Dq can activate neurons in cooperation with the membrane protein GPCR (G-protein-coupled receptors) upon stimulation with the drug CNO (clozapine n-oxide), whereby the specific activation of the BLA-DMS neural circuit can be achieved. After injecting different viruses into these two areas, it takes more than 4 weeks for the viruses to show their activities.
After 4 weeks, the learning process was performed for the first 4 days on the hole board without injection of CNO (clozapine n-oxide). During this process, the mice identify and remember the location of the water and 10% sucrose. The BLA-DMS circuit was continuously activated by injecting CNO (1 mg/kg) at the same time every day for 12 days, using the behavioral values of the 4th day as a reference. […]

Assay [2] concerns BLA-DMS neural circuit. The assay can be described thus: Hoarding test (two connected cages) in mice with activated BLA-DMS circuit. The settings on record: day 13 evening to day 14 morning, no administration; vs saline-administered group; FIGS. 12-14. The source says:
A tool was manufactured by connecting two cages, with a passage in the middle thereof. The cages each have a dimension of width 25 cm×length 20 cm×height 12 cm (Jeung Do PNP). For the passage, a PVC cylinder with a dimension of diameter 5 cm and length 19 cm was used. A hole with a diameter of 5 cm was drilled 1 cm above the bottom of each cage, and a sill was installed on the PVC so that the length of the passage was 9.5 cm when a PVC cylinder was inserted into the holes. Mice were placed one per cage. In order for the mouse to recognize one cage as a home cage, beddings were placed on only one cage and the other cage was left in the default state, and the passageway to the opposite side of the home cage was blocked for one day. Then the next evening, the food in the home cage was removed, foods and toys were placed on the other cage, and the blocked passage was opened. At this time, water was placed in the home cage. Differences between the groups were compared in how many food pellets and toys were brought to the home cage on the morning of the last day of the experiment. Quantification was made of the brought weight for food and the brought number for toys. […]

The test system of assay [3] is BLA-DMS neural circuit. Briefly: Observation of hairs around the mouth after the tests. The settings on record: 20 days after the last test day; vs saline-administered mice; FIG. 15. The source says:
Additionally, after 20 days from the last day, it was observed that the hairs around the mouth of the Clozapine n-oxide (CNO)-administered mice fell out, compared to the saline-administered mice, indicating a phenotype caused by excessive grooming (see FIG. 15).

The mark [4] stands for this setting: CNO 1 mg/kg i.p. daily vs saline, repeated 1-way ANOVA, FIG. 8.

The structures appear in SMILES notation. Entries after “also recorded” stand apart in the source; their conditions may differ.

Regarding `C[N+]1([O-])CCN(C2=Nc3cc(Cl)ccc3Nc3ccccc32)CC1` [CNO, clozapine N-oxide], the “checking frequency of heading toward 10% sucrose” value in the assay with BLA-DMS neural circuit [1] (CNO 1 mg/kg i.p. daily for 12 days vs saline control, repeated 1-way ANOVA, FIG. 6) is on record as “significantly increased”. Also, the “frequency of heading toward water (checking behavior)” value with BLA-DMS neural circuit [1] (CNO 1 mg/kg i.p. daily for 12 days vs saline-administered group, FIG. 6) was “no difference”. In addition, the “repetitive nose poking frequency” value with BLA-DMS neural circuit [1] (CNO 1 mg/kg i.p. daily vs saline, repeated 1-way ANOVA, FIG. 7) is recorded as “greatly increased”. In the assay on BLA-DMS neural circuit [1] (setting [4]), the grooming frequency entry was “significantly increased” and the “grooming time (duration)” value is reported as “significantly increased”. For the same compound, the “amount of 10% sucrose drank” value with BLA-DMS neural circuit [1] (CNO vs saline-administered group, FIG. 9) is listed as “no difference”. Further, the “obsessive-compulsive disorder (checking and nose poking) on day 13 without administration” value with BLA-DMS neural circuit [1] (day 13, saline and CNO not administered) is recorded as “maintained”. For the same compound, the “cognitive flexibility (times going to water and sucrose after positions swapped)” value in the assay on BLA-DMS neural circuit [1] (day 14 (18th day), vs saline-administered group, Student t-test, FIG. 10) is reported as “significantly lower”. In addition, in the assay on BLA-DMS neural circuit [2], the “hoarding of food pellets brought to home cage” value is on record as “significantly increased” and the “hoarding of toys brought to home cage” value is “significantly increased”. The “hairs around the mouth (phenotype caused by excessive grooming)” value in the assay on BLA-DMS neural circuit [3] was “fell out; also recorded: disappear”.

Source of the values: patent publication US20230000064A1, “OBSESSIVE-COMPULSIVE DISORDER ANIMAL MODEL AND PRODUCTION METHOD THEREOF” (KOREA UNIVERSITY RESEARCH AND BUSINESS FOUNDATION, priority 2019, published 2023).
